The record followed here is US20260250257A1, “ANTIBACTERIAL AND SYNERGISTIC ACTIVE COMPOUND AND USE THEREOF” (EAST CHINA UNIVERSITY OF SCIENCE AND TECHNOLOGY, priority 2023, published 2026).

Assay [1] has as its system clinical strains of Acinetobacter baumannii. Put plainly: Synergistic effect (FIC) on inhibiting clinical strains of Acinetobacter baumannii. In kind it is cell-based. Particulars: for FIC: with polymyxin E. On the procedure: Polymyxin E was diluted in sterile MH broth medium to concentrations of 16, 8, 4, 2, 1, 0.5, 0.25, 0.125, 0.0625, 0.031, and 0.015 μg/ml, and the drug to be tested was diluted to concentrations of 256, 128, 64, 32, 16, 8, and 4 μg/ml. According to the checkerboard method, combinations of the drug to be tested and polymyxin at different concentrations in ascending order were placed into a 96-well plate, and corresponding blank control groups were set up. 50 μl of the drug solution was added to each well, then 100 μl of bacterial liquid was added, and incubated in a 37° C. incubator for 16 hours. […] Calculation and judgment criteria:
Fractional Inhibitory Concentration (FIC) is calculated as follows: […]
Judgment criteria: FIC≤0.5: synergistic effect; 0.5<FIC<1: additive effect; 1<FIC<2: indifferent effect; FIC≥2: antagonistic effect.
(§1) Compound I-82 of the present invention was used as the representative compound and tested against clinical strains of Acinetobacter baumannii. […] The selected A. baumannii strains were isolated from hospital clinical samples and preserved in the laboratory for research purposes.

For assay [2], the system named is ATCC19606 strains (Acinetobacter baumannii). Description: In vivo synergistic bactericidal activity with polymyxin E, mouse bacteremia model. The arrangement: species or system Balb/c mice. The procedure: Representative compounds I-14 and I-82 were tested for their in vivo synergistic bactericidal activities when combined with polymyxin E. The specific method is as follows:
Normal Balb/c mice (6-8 weeks old) were used, and the animals were randomly divided into four groups (5 mice per group): • I: Control group • II: Polymyxin E at 0.5 mg/kg body weight • III: Polymyxin E at 0.5 mg/kg body weight+Compound I-14 at 16 mg/kg • IV: Polymyxin E at 0.5 mg/kg body weight+Compound I-82 at 16 mg/kg
Freshly cultured ATCC19606 strains (logarithmic growth phase) were washed with saline, adjusted to an OD600 of ~1.0, and mixed at 1:1 (v/v) with 10% porcine mucin. Each mouse was intraperitoneally administered 500 μl of the mixture. 1 hour later, an intraperitoneal injection was given again, with the control group receiving only saline.

Assay [3] has as its system ATCC13883 strain (Klebsiella pneumoniae). Put plainly: Checkerboard antibacterial synergistic activity test with polymyxin E (FIC). In kind it is cell-based. The arrangement: key: FIC≤0.5 synergy; 0.5–1 additive; 1–2 indifferent; ≥2 antagonism. The note with it: combined with polymyxin E. Summed up: (§2)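 Checkerboard in MH broth: colistin dilutions 16→0.015 μg/ml × test drug 256→4 μg/ml (concentrations before adding inoculum); drug mix plus bacteria, 37° C., 16 h. FIC cut-offs: ≤0.5 synergy; 0.5–1 additive; 1–2 indifferent; ≥2 antagonism.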

Assay [4] concerns ATCC25922 strain (Escherichia coli). The assay is described as above. The class given is cell-based. The arrangement: key: FIC≤0.5 synergy; 0.5–1 additive; 1–2 indifferent; ≥2 antagonism. The note with it: combined with polymyxin E. An outline of the steps:
as §2

Assay [5] concerns ATCC19606 strain (Acinetobacter baumannii). The assay is described as above. In kind it is cell-based. The arrangement: key: FIC≤0.5 synergy; 0.5–1 additive; 1–2 indifferent; ≥2 antagonism. Particulars: combined with polymyxin E. Summed up: as §2
The subject of assay [6] is ATCC9027 strain (Pseudomonas aeruginosa). The assay is described as above. Particulars: combined with polymyxin E. The arrangement: key: FIC≤0.5 synergy; 0.5–1 additive; 1–2 indifferent; ≥2 antagonism. In kind it is cell-based. Summed up:
as §2

For assay [7], the system named is ATCC13883 strain (Klebsiella pneumoniae). Put plainly: Broth microdilution, antibacterial activity of the compound used alone. In kind it is cell-based. Particulars: read-out: Antibacterial activity of the compound of Formula I, ATCC13883. From the text:
(§3) The broth microdilution method was used to test the antibacterial effects of the compounds of the present invention against various Gram-negative bacterial strains when used alone.
(In general: Dilution methods test growth across graded concentrations, often in twofold steps.)

Assay [8] has as its system ATCC25922 strain (Escherichia coli). Described as above. The class given is cell-based. The note with it: read-out: Antibacterial activity of the compound of Formula I, ATCC25922.
Description: as §3

The subject of assay [9] is ATCC19606 strain (Acinetobacter baumannii). The description is as above. The class given is cell-based. Particulars: read-out: Antibacterial activity of the compound of Formula I, ATCC19606.
Description: as §3

For assay [10], the system named is ATCC9027 strain (Pseudomonas aeruginosa). Described as above. The class given is cell-based. The note with it: read-out: Antibacterial activity of the compound of Formula I, ATCC9027.
Description: as §3

Assay [11] relates to clinical strains of Acinetobacter baumannii. Description: MIC of polymyxin E against polymyxin E-resistant clinical strains. In kind it is cell-based.
Description: as §1

≈ marks a conversion by molar mass, not a printed value.

In the case of `Cc1ccc(Oc2ccccc2-c2csc(N=C(N)N)n2)c(C)c1` [Compound I-82], the “Synergistic effects against clinical strains of A. baumannii” value in [1] (clinical strains with various resistance profiles) is “broad-spectrum synergistic effects”. For the same compound, the FIC is listed as 0.08 in [1] (strain aba 30); 0.13 in [1] (strain aba 39 (polymyxin E-resistant)); 0.09 in [1] (strain aba 1611); 0.13 in [1] (strain aba 1613); 0.08 in assay [1] (strain aba 1617); 0.02 in assay [1] (strain aba 1638). In addition, the FIC in assay [1] (strain aba 1645) is 0.16; in assay [1] (strain aba 4201), 0.09; in assay [1] (strain aba 4230), 0.06; in assay [1] (strain aba 6359), 0.09; in [1] (strain aba 6380), 0.14; in assay [1] (strain aba 6382), 0.09. Besides, the FIC in assay [1] (strain aba 6410) came to 0.06; in assay [1] (strain aba mia), 0.05; in assay [1] (strain aba pmrA (polymyxin E-resistant)) it was 0.16. The survival rate entry in [2] (Polymyxin E 0.5 mg/kg + compound 16 mg/kg, intraperitoneal, Day 5, Balb/c mice infected with ATCC19606) is listed as “above 60%”. The “synergistic effects with Polymyxin E in vivo” value in assay [2] (Polymyxin E 0.5 mg/kg + compound 16 mg/kg, Balb/c mice infected with ATCC19606) was “synergistic effects”. In assay [3], the “Synergistic activity (FIC value) ATCC13883” value is reported as 0.16. Also, in assay [4], the “Synergistic activity (FIC value) ATCC25922” value amounted to 0.18. Also, the “Synergistic activity (FIC value) ATCC19606” value in assay [5] stood at 0.03. Moreover, the “Synergistic activity (FIC value) ATCC9027” value in assay [6] is listed as 0.28. In addition, the MIC in assay [7], in [8], in assay [9] and in assay [10] was 256 µg/mL (≈ 756 µM) each time.

For polymyxin E, the “therapeutic effect on bacteremia in mice” value in assay [2] (Polymyxin E alone 0.5 mg/kg, Day 5, all mice died) is “no therapeutic effects”. Further, the MIC was found to be 64 µg/mL in assay [11] (strain aba39) and 256 µg/mL in assay [11] (strain aba pmrA).
